Laboratory results from the NIST ThermoML archive (doi:10.1016/j.jct.2015.06.017).

Settings: Liquid, Closed cell (Static) method

C=CC [propene]
Settings	vapor or sublimation pressure [kPa]
282.97 K	769
287.57 K	873
293.48 K	1028
298.02 K	1152
302.83 K	1291
307.67 K	1458
314.06 K	1691
318.36 K	1854
322.91 K	2039
327.27 K	2239
